Patent US7169567B1, “Screening assay utilizing the PTH receptor” (The General Hospital Corporation, priority 1998, dated 2007)

Legend:
[1] = target: T1, intact rat PTH-1 receptor (rWT-HA) (Rattus norvegicus, UniProt P25961); experiment: cAMP inhibition assay in COS-7 cells expressing rWT-HA; format: cell-based; conditions: antagonist 10 mM
T1 construct: expressed in transfected cells; host or cells: COS-7, transient (DEAE-dextran), pCDNA-1 based plasmid
T1 sequence (P25961 23-591 E93Y/N94P/K95Y/T99D/G100Y/S101A limits assumed): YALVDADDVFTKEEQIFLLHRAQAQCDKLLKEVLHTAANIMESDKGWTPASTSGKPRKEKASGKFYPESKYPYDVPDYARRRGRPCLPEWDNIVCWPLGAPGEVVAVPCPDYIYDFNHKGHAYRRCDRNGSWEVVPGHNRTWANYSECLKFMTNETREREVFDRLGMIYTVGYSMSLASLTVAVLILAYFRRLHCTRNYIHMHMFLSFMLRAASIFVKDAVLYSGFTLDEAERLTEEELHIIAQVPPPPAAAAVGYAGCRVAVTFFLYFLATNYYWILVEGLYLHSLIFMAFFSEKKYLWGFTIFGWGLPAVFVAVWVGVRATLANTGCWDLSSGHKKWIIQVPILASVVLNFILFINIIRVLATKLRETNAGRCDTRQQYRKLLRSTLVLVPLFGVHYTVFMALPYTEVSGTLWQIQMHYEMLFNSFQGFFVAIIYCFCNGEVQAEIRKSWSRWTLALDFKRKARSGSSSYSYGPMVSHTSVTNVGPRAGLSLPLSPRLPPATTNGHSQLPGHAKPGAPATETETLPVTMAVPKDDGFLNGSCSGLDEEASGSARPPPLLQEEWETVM
Method: (§1) FIG. 7. Antagonist Properties of PTHrP(7–34) with PTH(1–14). COS-7 cells transfected with rWT-HA (A) or rΔNt (B) were treated with the antagonist [Leu11,D-Trp12]hPTHrP(7–34)NH2 (or buffer alone), for 5 min at 22EC, followed by 10 ml of either rPTH(1–34) or rPTH(1–14) agonist peptide. Incubations were continued for 30 min at 21° C. and the resulting cAMP levels were measured by RIA, as described in Experimental Procedures. The final concentration of antagonist peptide present during the incubation was 10 mM. Shown are data from a single experiment performed in triplicate. A repeat of the same experiment yielded equivalent results.
For cAMP inhibition assays, transfected COS-7 cells were rinsed once with 500 ml of binding buffer, and 200 ml of IBMX buffer and 100 ml of binding buffer or binding buffer containing the antagonist [Leu11,D-Trp12]hPTHrP(7–34) NH2 (10 mM) were added. After a 5 minute incubation at room temperature, 10 ml of binding buffer containing PTH(1–14) or PTH(1–34) (agonist peptide) was added, and the incubation was continued for an additional 30 minutes. The cells were then lysed and intracellular cAMP levels were measured as described above. […]

[2] = target: T2, truncated rat PTH-1 receptor (rΔNt) (Rattus norvegicus, UniProt P25961, E586G); experiment: cAMP inhibition assay in COS-7 cells expressing rΔNt; format: cell-based
T2 construct: contains an open reading frame encoding a protein of about 435 amino acid residues; expressed in transfected cells; host or cells: COS-7, transient (DEAE-dextran), pCDNA-1 based plasmid
T2 sequence (P25961 with tags, fused parts or gaps E586G): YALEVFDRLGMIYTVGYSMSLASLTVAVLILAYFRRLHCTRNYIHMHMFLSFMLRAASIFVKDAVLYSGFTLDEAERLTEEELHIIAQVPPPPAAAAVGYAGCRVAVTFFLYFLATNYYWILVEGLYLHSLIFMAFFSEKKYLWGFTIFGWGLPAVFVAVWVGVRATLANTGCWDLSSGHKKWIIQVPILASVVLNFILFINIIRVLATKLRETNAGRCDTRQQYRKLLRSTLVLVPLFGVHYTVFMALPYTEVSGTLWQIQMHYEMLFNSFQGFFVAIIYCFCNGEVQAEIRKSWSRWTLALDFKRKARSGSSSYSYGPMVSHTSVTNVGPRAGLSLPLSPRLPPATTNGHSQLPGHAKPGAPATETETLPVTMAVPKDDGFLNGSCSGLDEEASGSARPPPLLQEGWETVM
Method: as §1
For cAMP inhibition assays, transfected COS-7 cells were rinsed once with 500 ml of binding buffer, and 200 ml of IBMX buffer and 100 ml of binding buffer or binding buffer containing the antagonist [Leu11,D-Trp12]hPTHrP(7–34) NH2 (10 mM) were added. After a 5 minute incubation at room temperature, 10 ml of binding buffer containing PTH(1–14) or PTH(1–34) (agonist peptide) was added, and the incubation was continued for an additional 30 minutes. The cells were then lysed and intracellular cAMP levels were measured as described above.
In order to determine whether [Leu11,D-Trp12]hPTHrP(7–34)NH2, a potent competitive antagonist of PTH(1–34) action (Nutt, R. F., et al., Endocrinology 127:491–493 (1990)), could block the ability of PTH(1–14) to stimulate cAMP formation in COS-7 cells expressing either rWT-HA or rΔNt (FIG. 6). With rWT-HA the inhibitor peptide reduced the efficacy of both PTH(1–14) and PTH(1–34) by as much as 70% as compared to the responses elicited by these agonists in the absence of inhibitor (FIG. 6A).

[3] = cells expressing rΔNt, antagonist 10 mM

**Q.** Which “reduction of efficacy of PTH(1–14) (cAMP) compared to response in absence of inhibitor” value ([1]; agonist PTH(1–14)) does the source give for “[Leu^11,D-Trp^12]hPTHrP(7–34)NH2 [[Leu11,D-Trp12]hPTHrP(7–34)NH2]” here?
**A.** ≤ 70%

**Q.** What about the “reduction of efficacy of PTH(1–34) (cAMP) compared to response in absence of inhibitor” value ([1]; agonist PTH(1–34)) of the same substance?
**A.** ≤ 70%

**Q.** And the “effect on the ability of PTH(1–14) to stimulate cAMP production” value [2, 3]?
**A.** little or no effect

**Q.** What about the “effect on the ability of PTH(1–34) to stimulate cAMP production” value [2, 3] of the same substance?
**A.** little or no effect

**Q.** And the “function as an antagonist with rΔNt” value ([2]; rΔNt)?
**A.** inability
